Activity calls are given as the source filed them. Where a SMILES comes first, the peptide text is derived from it. Square brackets hold non-standard residues; d marks the D form. Peptide text beside a SMILES is read from it.
How the values were obtained:
P388 = experiment: cells; assay type: functional; conditions: Mus musculus
SN12K1 = experiment: cells; assay type: functional; conditions: Homo sapiens
P388/ADR = experiment: cells; assay type: functional; conditions: Mus musculus
[1] = target: T1, Short transient receptor potential channel 4 (Mus musculus, UniProt Q9QUQ5); experiment: mouse TRPC4 channel inhibitors, dose response, cell-based, HEK293 TRPC4/mu-opioid, Fluo-4 calcium (AID 434942); assay type: functional;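 also: potency of inhibitors blocking the TRPC4 calcium response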
T1 sequence (Q9QUQ5 whole entry): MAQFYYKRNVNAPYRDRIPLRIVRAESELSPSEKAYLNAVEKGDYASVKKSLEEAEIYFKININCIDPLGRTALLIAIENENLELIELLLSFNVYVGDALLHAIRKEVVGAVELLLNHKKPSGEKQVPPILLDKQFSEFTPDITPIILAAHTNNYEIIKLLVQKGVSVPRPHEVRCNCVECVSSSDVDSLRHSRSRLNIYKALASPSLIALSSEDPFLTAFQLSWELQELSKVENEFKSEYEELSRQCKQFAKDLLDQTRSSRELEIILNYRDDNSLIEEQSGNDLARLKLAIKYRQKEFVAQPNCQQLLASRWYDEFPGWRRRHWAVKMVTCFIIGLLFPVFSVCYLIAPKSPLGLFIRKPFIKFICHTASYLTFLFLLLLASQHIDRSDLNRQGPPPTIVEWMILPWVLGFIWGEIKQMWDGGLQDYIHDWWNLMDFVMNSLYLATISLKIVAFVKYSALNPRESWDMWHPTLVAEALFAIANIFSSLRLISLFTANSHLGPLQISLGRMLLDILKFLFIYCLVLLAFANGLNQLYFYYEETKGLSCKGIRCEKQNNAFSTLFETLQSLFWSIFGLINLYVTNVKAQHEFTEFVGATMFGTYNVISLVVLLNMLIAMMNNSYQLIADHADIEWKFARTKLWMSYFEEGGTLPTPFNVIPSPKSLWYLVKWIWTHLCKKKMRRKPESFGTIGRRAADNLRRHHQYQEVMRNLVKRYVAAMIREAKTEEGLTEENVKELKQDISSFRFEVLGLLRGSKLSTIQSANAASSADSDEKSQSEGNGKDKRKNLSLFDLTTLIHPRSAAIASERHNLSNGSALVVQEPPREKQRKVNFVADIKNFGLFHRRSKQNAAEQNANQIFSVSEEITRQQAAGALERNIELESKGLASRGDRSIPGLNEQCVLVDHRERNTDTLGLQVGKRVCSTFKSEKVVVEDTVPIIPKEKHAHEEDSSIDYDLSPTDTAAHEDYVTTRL

[2] = test system: Streptococcus sp. 'group A'; experiment: growth inhibition of control SK(-) GAS strain, dose response, counter-screen for streptokinase expression inhibitor project, luminescence, kanamycin, BacTiterGlo, confirmation (AID 1900); assay type: functional, organism-based
Streptococcus = experiment: Group A Streptococcus viability loss, dose response, counter-screen for streptokinase expression inhibitor project, luminescence, BacTiterGlo (AID 1915); assay type: functional, organism-based;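 also: potency for reduction of bacterial viability or growth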
Streptokinase A = target: T2, Streptokinase A (Streptococcus pyogenes serotype M1, UniProt P10520); experiment: S. pyogenes streptokinase expression inhibitors, potency, dose response, plasminogen activation absorbance, OD405 (AID 1914); assay type: functional, Streptococcus pyogenes M1 GAS;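 also: secreted streptokinase activity via plasminogen activation per viability signal from cell pellet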
T2 sequence (P10520 whole entry): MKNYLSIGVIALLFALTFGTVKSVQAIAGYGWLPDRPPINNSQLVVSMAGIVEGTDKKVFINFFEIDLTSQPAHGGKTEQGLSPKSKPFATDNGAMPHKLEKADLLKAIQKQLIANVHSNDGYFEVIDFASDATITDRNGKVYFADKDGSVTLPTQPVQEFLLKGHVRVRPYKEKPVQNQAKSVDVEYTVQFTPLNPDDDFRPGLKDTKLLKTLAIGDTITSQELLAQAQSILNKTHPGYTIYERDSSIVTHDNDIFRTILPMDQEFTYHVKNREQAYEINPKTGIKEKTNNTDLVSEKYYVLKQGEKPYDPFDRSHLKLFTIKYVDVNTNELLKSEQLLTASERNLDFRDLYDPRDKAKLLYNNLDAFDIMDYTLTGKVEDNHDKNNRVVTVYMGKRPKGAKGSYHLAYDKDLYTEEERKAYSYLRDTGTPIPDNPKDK

[3] = intracellular Trypanosoma cruzi inhibitors in host cells – cell-based, plate reader, cherry-pick samples, set 3, dose response (AID 651818); assay type: functional;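 also: compounds incubated with infected cells for about four days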
Genome polyprotein = Genome polyprotein (dengue virus type 2, UniProt P29990); experiment: Dengue-2 NS5 methyltransferase inhibitors, primary screen, biochemical, confirmation dose response (AID 588689); assay type: functional
Chain of Genome polyprotein (P29990 2492-3391 limits assumed): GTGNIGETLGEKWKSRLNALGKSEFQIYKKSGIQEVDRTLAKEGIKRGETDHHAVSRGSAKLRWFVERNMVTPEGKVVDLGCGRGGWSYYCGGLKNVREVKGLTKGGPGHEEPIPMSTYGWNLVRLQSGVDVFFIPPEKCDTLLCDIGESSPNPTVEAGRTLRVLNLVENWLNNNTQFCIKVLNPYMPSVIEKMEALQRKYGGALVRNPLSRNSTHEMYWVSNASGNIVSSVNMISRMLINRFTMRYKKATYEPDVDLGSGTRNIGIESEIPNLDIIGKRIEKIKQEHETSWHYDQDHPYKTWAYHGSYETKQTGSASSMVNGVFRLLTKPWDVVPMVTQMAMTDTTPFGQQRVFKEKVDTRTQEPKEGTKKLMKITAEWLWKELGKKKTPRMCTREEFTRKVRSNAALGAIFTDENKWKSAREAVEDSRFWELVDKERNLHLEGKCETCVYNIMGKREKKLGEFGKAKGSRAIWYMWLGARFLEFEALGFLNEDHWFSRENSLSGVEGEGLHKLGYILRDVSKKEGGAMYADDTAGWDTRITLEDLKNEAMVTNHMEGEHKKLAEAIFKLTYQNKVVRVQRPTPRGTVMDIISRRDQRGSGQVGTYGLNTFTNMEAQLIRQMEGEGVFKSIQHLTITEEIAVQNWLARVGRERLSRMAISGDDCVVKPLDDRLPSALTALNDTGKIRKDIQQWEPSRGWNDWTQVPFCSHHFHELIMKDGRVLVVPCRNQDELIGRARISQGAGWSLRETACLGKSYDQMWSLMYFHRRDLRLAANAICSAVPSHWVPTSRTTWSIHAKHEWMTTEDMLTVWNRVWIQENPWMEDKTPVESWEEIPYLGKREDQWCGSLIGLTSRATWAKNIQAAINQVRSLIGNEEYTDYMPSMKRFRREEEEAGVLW

[4] = target: Induced myeloid leukemia cell differentiation protein Mcl-1 (Homo sapiens, UniProt Q07820); assay type: functional
Chain of Induced myeloid leukemia cell differentiation protein Mcl-1 (Q07820 whole entry, the tested form may be a part): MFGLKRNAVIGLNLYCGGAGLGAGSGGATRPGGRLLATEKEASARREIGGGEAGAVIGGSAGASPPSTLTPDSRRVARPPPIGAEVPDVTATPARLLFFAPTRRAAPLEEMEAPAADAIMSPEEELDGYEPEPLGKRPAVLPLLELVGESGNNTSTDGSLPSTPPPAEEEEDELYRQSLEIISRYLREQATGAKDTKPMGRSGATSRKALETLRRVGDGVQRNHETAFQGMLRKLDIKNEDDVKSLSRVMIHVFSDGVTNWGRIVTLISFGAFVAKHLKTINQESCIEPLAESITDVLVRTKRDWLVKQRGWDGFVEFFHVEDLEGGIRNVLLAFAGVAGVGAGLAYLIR

[5] = target: T3, Carboxy-terminal domain RNA polymerase II polypeptide A small phosphatase 1 (Homo sapiens, UniProt Q9GZU7); experiment: inhibitors of CTDSP1, concentration-response testing, biochemical assay, absorbance-based, actives from ultra-high-throughput screening (AID 540297); assay type: functional
T3 sequence (Q9GZU7 whole entry): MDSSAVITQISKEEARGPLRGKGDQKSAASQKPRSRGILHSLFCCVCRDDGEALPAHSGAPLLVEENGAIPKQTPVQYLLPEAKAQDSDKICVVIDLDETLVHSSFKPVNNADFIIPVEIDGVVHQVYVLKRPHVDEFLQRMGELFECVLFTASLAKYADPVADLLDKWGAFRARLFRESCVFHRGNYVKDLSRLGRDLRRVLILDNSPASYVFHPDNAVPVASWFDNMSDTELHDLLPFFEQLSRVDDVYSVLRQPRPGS

[6] = target: T4, RNA-binding protein pos-1 (Caenorhabditis elegans, UniProt G5EF15); experiment: inhibitors of POS-1/mex-3 RNA binding, dose response, biochemical, fluorescence polarization (AID 1964);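 also: purified POS-1 fused to maltose binding protein made in E. coli; potency of compounds blocking POS-1 binding to fluorescent RNA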
T4 sequence (G5EF15 whole entry): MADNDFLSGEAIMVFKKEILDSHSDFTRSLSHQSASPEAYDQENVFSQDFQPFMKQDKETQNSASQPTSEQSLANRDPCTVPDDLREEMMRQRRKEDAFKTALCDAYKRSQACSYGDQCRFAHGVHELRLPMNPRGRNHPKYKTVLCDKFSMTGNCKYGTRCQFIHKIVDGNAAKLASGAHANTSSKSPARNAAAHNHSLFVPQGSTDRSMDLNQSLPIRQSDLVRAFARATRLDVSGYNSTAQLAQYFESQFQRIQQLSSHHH

[7] = target: T5, Zinc finger protein mex-5 (Caenorhabditis elegans, UniProt Q9XUB2); experiment: MEX-5/TCR-2 RNA interaction inhibitors, dose response, biochemical, C. elegans, fluorescence polarization (AID 1960)
T5 sequence (Q9XUB2 whole entry): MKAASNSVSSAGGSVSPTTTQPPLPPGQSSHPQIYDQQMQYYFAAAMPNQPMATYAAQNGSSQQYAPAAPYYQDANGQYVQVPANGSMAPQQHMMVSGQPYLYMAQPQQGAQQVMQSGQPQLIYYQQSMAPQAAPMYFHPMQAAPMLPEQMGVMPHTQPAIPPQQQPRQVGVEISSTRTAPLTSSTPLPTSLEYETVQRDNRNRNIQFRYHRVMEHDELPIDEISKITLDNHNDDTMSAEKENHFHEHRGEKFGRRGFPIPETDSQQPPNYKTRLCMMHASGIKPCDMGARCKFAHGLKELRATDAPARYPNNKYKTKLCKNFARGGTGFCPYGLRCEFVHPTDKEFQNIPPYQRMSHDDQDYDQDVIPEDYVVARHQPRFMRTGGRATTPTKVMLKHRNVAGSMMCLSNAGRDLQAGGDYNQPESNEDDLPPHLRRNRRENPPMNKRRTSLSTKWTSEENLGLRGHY

[8] = target: T6, Replicative DNA helicase DnaB (Mycobacterium tuberculosis, UniProt P9WMR3); experiment: DnaB intein splicing inhibitors, dose response, biochemical, cell-free fluorescence (AID 449749); assay type: functional
T6 sequence (P9WMR3 whole entry): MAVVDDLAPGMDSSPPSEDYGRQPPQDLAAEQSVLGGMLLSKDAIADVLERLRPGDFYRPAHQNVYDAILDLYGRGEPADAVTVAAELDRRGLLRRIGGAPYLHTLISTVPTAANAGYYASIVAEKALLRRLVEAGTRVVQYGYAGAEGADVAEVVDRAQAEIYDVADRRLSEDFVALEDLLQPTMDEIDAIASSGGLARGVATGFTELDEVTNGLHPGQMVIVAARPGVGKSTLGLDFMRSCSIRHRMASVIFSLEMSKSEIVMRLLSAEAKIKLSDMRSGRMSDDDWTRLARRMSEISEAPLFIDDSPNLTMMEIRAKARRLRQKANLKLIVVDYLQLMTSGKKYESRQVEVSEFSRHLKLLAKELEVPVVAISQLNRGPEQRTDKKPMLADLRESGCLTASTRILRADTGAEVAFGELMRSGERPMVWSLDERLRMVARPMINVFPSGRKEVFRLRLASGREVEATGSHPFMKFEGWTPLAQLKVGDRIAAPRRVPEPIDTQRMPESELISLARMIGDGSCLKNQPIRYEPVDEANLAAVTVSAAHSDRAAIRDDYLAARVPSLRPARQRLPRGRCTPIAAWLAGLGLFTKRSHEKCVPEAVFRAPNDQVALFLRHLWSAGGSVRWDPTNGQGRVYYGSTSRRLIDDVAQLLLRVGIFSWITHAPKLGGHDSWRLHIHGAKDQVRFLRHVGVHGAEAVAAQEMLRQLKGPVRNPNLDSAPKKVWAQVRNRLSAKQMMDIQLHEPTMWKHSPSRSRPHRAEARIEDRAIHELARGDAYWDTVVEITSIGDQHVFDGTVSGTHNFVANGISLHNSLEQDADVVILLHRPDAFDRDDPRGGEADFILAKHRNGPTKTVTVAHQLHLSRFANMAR

| SMILES | GI50 (P388) | GI50 (SN12K1) | GI50 (P388/ADR) | EC50 [1] | further results |
| --- | --- | --- | --- | --- | --- |
| Cc1cc(/N=N/c2ccc(/N=N/c3c(O)c(S(=O)(=O)O)cc4cc(S(=O)(=O)O)ccc34)cc2C)ccc1/N=N/c1ccc2cc(S(=O)(=O)O)cc(S(=O)(=O)O)c2c1 | 42.8 µM (inactive) | > 100 µM (inactive) | 26.5 µM (inactive) | – | – |
| O=C(CCN1CCOCC1)C(=Cc1ccccc1)C(=O)CCN1CCOCC1 | 0.392 µM (active) | 2.32 µM (inactive) | 0.255 µM (active) | – | – |
| CC(=O)N1CCN(c2ccccc2NC(=O)c2cccs2)CC1 | – | – | – | 1.68 µM (active) | EC50 [2]: > 150 µM (not active); EC50 (Streptococcus): > 150 µM (not active); EC50 (Streptokinase A): > 150 µM (not active) |
| COc1ccc(S(=O)(=O)Nc2ccc3c(c2)CC(=O)N([C@H](C)CO)C[C@@H](C)[C@@H](CN(C)S(=O)(=O)c2cccs2)O3)cc1 | – | – | – | – | AC50 [3]: 6.01 µM (active) |
| CC(C)C[C@H](NC(=O)[C@H](CC(C)C)NC(=O)[C@@H](Cc1c[nH]c2ccccc12)NC(=O)[C@H](Cc1ccccc1)NC(=O)[C@@H](Cc1c[nH]c2ccccc12)NC(=O)[C@H](CCC(N)=O)NC(=O)[C@@H](CCC(N)=O)NC(=O)[C@@H]1CCCN1C(=O)[C@@H](CCCCN)NC(=O)[C@H]1CCCN1C(=O)[C@H](N)CCCN=C(N)N)C(N)=O (H-[dR][dP][dK]P[dQ]Q[dW]F[dW]LL-NH2) | > 79.8 µM (inactive) | > 100 µM (inactive) | > 100 µM (inactive) | – | – |
| Cc1ccc(/C=C/C(=O)c2ccc(O)cc2)cc1 | – | – | – | 3.35 µM (active) | – |
| CCCCNC(=O)c1ccc2nc(-c3ccco3)c(-c3ccco3)nc2c1 | – | – | – | – | IC50 (Genome polyprotein): 80.4 µM (active); IC50 [4]: 6.65 µM (active); IC50 [5]: 3.77 µM (active) |
| CC[C@H]1CN2CCc3cc(OC)c(OC)cc3[C@@H]2C[C@@H]1C[C@H]1NCCc2c1[nH]c1ccc(O)cc21 [TUBULOSINE] | < 0.01 µM (active) | < 0.01 µM (active) | 0.493 µM (active) | – | – |
| COc1cc(C=C2C(=O)NC(=O)NC2=O)ccc1OS(=O)(=O)c1ccccc1[N+](=O)[O-] | – | – | – | – | IC50 (Genome polyprotein): 37.7 µM (active) |
| Cc1sc(C(C2C(=O)CC(C)(C)CC2=O)C2C(=O)CC(C)(C)CC2=O)cc1[N+](=O)[O-] | – | – | – | – | IC50 (Genome polyprotein): 29.4 µM (active) |
| C[C@@H]1CN([C@@H](C)CO)C(=O)c2cccc(NC(=O)c3ccc(-c4nccs4)cc3)c2O[C@H]1CN(C)Cc1ccc(Oc2ccccc2)cc1 | – | – | – | – | AC50 [3]: 3.03 µM (active) |
| CCCc1nc2ccccc2n1Cc1ccccc1OC | – | – | – | 6.68 µM (active) | – |
| ClCCN(CC#CCCCC#CCN(CCCl)CCCl)CCCl | 0.736 µM (active) | 10 µM (inactive) | 2.44 µM (inactive) | – | – |
| CC1NC(=O)CNC(=O)CNC(=O)C(Cc2ccc(O)cc2)NC(=O)C(C(C)C)NC(=O)C(C)NC1=O (stereo not given) (cyclo(GGAAVY); configuration not given here) | > 100 µM (inactive) | > 100 µM (inactive) | > 100 µM (inactive) | – | – |
| CCS(=O)(=O)Nc1ccc(Nc2c3ccccc3nc3ccccc23)c(OC)c1 | < 0.01 µM (active) | 0.51 µM (active) | 0.0955 µM (active) | – | – |
| CCOC(=O)C1(CCOC)CCN(C(C)CCc2ccc(OC)cc2)CC1 (stereo not given) | – | – | – | 4.22 µM (active) | – |
| COC(=O)Cn1cc(C=C2C(=O)NC(=O)NC2=O)c2ccccc21 | – | – | – | – | IC50 (Genome polyprotein): 25.7 µM (active); EC50 [6]: > 300 µM (not active); EC50 [7]: > 300 µM (not active) |
| N=C(Cc1cccc2ccccc12)NOC(=O)c1cccs1 | – | – | – | 0.596 µM (active) | AC50 [8]: 5.96 µM (active) |
| Cc1ccc(N(C(=O)c2snc(C(N)=O)c2N)C(C(=O)NCC2CCCO2)c2ccc(C)o2)c(C)c1 (stereo not given) | – | – | – | 1.68 µM (active) | – |
| O=[N+]([O-])c1cccc(N(CC(O)CN2CCCC2)S(=O)(=O)c2ccccc2)c1 (stereo not given) | – | – | – | 10.6 µM (active) | – |
| O=C(NC/C=C/CO)c1ccccc1 | > 100 µM (inactive) | > 100 µM (inactive) | > 100 µM (inactive) | – | – |

From ChEMBL document CHEMBL1201862, “PubChem BioAssay data set” (2004)
